The structures appear in SMILES notation. Calls of active or inactive are those of the source.

For experiment [1], the target named is T1, RNA-binding protein pos-1 (Caenorhabditis elegans, UniProt G5EF15).
T1 sequence (G5EF15 whole entry): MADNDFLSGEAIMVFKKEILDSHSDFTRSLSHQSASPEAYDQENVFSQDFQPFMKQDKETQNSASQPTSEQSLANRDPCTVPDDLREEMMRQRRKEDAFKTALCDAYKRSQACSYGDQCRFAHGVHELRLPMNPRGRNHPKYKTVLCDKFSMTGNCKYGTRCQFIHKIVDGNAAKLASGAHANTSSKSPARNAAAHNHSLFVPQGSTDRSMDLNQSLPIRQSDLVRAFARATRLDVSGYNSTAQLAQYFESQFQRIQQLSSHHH
As to the kind of experiment: disruptors of C. elegans POS-1 RNA interaction – biochemical, fluorescence polarization, dose response (AID 1964).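 Note: purified POS-1 fused to maltose binding protein made in E. coli; potency of compounds blocking POS-1 binding to fluorescent RNA.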 In general terms: Fluorescence polarisation rises when a labelled molecule tumbles more slowly, as on binding a larger partner.

In experiment [2] the target is T2, Zinc finger protein mex-5 (Caenorhabditis elegans, UniProt Q9XUB2).
T2 sequence (Q9XUB2 whole entry): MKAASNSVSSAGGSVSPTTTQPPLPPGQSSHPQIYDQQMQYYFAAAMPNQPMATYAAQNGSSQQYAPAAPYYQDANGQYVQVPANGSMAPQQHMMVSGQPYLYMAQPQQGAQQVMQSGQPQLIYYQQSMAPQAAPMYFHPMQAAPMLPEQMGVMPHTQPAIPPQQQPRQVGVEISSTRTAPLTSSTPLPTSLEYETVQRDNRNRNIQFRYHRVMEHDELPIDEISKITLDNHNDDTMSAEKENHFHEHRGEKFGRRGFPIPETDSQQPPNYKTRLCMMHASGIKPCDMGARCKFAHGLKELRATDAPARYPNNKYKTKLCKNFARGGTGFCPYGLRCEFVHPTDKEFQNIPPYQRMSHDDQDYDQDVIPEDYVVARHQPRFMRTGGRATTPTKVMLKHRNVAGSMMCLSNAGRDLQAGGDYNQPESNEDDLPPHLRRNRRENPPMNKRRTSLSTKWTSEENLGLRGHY
Kind of experiment: potency of MEX-5 RNA-binding blockers – biochemical, C. elegans, fluorescence polarization, dose response (AID 1960).

A further experiment concerns the target T3, Estrogen receptor (Homo sapiens, UniProt P03372).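 Note: potency for inhibiting coactivator peptide recruitment to the receptor.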
T3 sequence (P03372 whole entry): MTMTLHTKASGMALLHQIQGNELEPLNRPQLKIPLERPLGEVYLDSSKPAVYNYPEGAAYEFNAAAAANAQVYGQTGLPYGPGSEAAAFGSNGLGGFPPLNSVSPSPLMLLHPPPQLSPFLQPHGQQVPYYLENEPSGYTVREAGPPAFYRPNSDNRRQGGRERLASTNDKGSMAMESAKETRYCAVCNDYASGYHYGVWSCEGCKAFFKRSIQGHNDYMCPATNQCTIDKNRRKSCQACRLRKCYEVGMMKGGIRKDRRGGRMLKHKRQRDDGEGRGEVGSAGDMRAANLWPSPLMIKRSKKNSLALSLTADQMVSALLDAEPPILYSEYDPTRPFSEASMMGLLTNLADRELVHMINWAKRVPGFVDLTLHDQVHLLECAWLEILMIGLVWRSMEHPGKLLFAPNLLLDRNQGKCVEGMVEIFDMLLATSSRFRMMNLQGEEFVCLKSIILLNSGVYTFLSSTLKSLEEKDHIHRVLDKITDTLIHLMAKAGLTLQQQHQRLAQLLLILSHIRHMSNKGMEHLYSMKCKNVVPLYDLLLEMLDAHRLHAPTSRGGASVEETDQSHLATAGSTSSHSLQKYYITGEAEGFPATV

For experiment [3], the target named is T4, Polyadenylate-binding protein 1 (Homo sapiens, UniProt P11940). Kind of experiment: MLLE binding blockers, Cy5 peptide tracer – biochemical, fluorescence polarization, Cy5-PAM2 peptide, secondary, miRNA deadenylation inhibitor project, dose response (AID 602260). It is filed as functional. To be noted: read-out: IC50_Mean.
For experiment [4], the target named is T4, Polyadenylate-binding protein 1. Kind of experiment: MLLE domain peptide-binding blockers, IC50 – biochemical, fluorescence polarization, FITC-PAM2 peptide, dose response (AID 602259). The conditions noted are these: read-out: IC50_Mean. It is filed as functional.
The target of experiment [5] is Glyceraldehyde-3-phosphate dehydrogenase (Homo sapiens, UniProt P04406).
The next experiment deals with T5, Aminopeptidase N (Plasmodium falciparum FcB1/Columbia, UniProt O96935).
T5 sequence (O96935 whole entry): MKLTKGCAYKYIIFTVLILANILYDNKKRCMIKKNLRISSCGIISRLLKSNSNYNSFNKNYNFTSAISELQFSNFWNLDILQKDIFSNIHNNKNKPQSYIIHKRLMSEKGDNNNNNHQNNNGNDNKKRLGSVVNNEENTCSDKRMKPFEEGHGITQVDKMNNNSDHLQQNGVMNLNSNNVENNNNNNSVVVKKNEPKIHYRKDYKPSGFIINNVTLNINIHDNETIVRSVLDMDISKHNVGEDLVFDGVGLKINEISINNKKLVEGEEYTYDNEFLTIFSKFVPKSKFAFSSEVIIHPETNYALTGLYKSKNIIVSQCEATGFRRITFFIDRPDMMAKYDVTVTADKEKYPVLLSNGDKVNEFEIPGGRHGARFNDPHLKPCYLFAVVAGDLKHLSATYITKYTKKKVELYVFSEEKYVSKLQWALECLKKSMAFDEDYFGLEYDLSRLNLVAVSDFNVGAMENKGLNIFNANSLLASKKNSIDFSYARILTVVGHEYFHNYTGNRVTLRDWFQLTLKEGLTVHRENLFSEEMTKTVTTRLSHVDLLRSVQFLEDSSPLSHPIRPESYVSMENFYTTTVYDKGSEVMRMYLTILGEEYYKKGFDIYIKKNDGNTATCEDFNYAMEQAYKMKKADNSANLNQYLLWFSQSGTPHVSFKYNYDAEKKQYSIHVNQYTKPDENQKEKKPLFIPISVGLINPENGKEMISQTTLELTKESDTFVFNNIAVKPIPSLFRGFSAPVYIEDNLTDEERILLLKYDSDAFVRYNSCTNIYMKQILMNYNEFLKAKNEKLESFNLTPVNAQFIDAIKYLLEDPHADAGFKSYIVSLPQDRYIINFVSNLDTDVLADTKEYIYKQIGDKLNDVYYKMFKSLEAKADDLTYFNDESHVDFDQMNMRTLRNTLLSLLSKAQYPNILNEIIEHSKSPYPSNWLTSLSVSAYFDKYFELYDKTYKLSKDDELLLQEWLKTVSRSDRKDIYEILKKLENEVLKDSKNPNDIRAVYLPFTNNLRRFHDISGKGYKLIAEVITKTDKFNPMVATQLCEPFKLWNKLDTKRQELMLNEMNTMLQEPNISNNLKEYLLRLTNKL
Kind of experiment: malaria alanyl aminopeptidase activity blockers – biochemical, fluorogenic H-Leu-NHMec substrate, 1536-well (AID 1445). The arrangement: species or system Plasmodium falciparum 3D7, 3D7.

The target of a further experiment is Genome polyprotein (dengue virus type 2, UniProt P29990). As to the kind of experiment: flavivirus cap methylation enzyme inhibition – biochemical, confirmation dose response, primary screen (AID 588689). Format: functional.
A short description of experiment [6]: microbe, parasite or virus in culture. It is filed as functional. To be noted: Mycobacterium tuberculosis.
A short description of experiment [7]: THP-1 cell cytotoxicity, dose response, cytotoxicity control for non-replicating M. tuberculosis project (AID 489025). It is filed as functional.
Experiment [8] is described as follows: Vero E6 cell cytotoxicity, dose response, cytotoxicity control for non-replicating M. tuberculosis project, secondary assay (AID 492998). It is filed as functional, VeroE6. To be noted: Vero C1008.
Another experiment can be described thus: cells. Format: functional.
Experiment [9] has as its target T6, Heat shock factor protein 1 (Mus musculus, UniProt P38532).
T6 sequence (P38532 whole entry): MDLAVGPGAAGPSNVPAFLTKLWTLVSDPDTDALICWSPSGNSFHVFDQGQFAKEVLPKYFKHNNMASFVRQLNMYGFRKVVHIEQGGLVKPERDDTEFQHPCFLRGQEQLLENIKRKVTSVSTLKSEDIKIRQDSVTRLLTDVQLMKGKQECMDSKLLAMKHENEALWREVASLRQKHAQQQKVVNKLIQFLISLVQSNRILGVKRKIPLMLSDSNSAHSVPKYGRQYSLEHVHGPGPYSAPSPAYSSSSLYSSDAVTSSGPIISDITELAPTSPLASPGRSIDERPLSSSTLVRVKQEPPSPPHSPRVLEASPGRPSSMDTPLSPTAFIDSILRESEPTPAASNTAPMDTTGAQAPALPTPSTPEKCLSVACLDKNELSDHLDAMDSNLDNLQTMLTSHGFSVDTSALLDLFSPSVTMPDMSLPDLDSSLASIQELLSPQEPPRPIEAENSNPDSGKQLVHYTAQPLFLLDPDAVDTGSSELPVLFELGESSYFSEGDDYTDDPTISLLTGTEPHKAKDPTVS
Kind of experiment: decrease of HSF1-responsive luciferase luminescence – cell-based, NIH3T3, dose retest, confirmation (AID 2382).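 Note: NIH3T3 fibroblasts with HSF1-driven luciferase reporter stressed by proteasome inhibitor MG132; luminescence from HSF1-driven luciferase expression after 8 hours of MG132 stress.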 Format: functional.

The subject of the next experiment is SN12K1. As to the kind of experiment: cells. It is filed as functional. To be noted: Homo sapiens.
In the next experiment the target is Paired box protein Pax-8 (Homo sapiens, UniProt Q06710). As to the kind of experiment: PAX8 transcriptional activity inhibition in RMG-I – RMG-I cells, luciferase, cherry-pick, dose response (AID 687027).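 Note: luciferase reporter driven by Pax8 target thyroperoxidase promoter measured by SteadyGlo luminescence.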 Format: functional, cell-based.
Experiment [10] can be described thus: OVCAR-3 cell viability loss – plate reader, dry powder samples, PAX8 inhibitor project, dose response (AID 743044). It is filed as functional, cell-based.
A short description of experiment [11]: P. falciparum Dd2 growth inhibitors, dose response, SYBR Green, cherry-picked samples (AID 1159567). It is filed as functional, cell-based.

Sequence of Glyceraldehyde-3-phosphate dehydrogenase (P04406 whole entry): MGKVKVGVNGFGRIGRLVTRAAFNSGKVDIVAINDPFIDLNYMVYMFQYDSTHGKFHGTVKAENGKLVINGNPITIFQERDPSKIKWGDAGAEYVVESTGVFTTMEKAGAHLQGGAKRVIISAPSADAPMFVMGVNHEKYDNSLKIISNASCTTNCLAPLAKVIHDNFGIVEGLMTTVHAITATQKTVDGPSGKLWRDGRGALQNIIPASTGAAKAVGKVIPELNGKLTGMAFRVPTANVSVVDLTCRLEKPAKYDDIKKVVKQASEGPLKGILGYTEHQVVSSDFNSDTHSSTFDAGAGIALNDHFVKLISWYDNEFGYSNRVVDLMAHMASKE
T4 sequence (P11940 whole entry, the tested form may be a part): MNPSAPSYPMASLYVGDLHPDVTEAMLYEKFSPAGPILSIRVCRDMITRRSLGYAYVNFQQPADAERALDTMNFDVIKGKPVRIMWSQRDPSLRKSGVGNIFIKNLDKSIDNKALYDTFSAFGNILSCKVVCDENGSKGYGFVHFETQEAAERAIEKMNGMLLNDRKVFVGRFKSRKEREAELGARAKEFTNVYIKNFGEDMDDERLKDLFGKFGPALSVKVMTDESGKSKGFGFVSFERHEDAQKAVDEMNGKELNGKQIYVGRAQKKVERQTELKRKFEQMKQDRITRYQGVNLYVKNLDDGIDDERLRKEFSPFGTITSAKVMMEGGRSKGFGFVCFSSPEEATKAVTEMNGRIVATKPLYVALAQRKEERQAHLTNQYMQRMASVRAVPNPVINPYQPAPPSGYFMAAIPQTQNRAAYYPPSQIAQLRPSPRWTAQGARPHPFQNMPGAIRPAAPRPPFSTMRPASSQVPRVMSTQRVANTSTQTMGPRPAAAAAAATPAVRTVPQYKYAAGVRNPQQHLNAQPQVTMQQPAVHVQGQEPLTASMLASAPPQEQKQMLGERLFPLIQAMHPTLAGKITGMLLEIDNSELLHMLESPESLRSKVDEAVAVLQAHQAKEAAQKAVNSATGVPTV
Sequence of Genome polyprotein (P29990 2492-3391 limits assumed): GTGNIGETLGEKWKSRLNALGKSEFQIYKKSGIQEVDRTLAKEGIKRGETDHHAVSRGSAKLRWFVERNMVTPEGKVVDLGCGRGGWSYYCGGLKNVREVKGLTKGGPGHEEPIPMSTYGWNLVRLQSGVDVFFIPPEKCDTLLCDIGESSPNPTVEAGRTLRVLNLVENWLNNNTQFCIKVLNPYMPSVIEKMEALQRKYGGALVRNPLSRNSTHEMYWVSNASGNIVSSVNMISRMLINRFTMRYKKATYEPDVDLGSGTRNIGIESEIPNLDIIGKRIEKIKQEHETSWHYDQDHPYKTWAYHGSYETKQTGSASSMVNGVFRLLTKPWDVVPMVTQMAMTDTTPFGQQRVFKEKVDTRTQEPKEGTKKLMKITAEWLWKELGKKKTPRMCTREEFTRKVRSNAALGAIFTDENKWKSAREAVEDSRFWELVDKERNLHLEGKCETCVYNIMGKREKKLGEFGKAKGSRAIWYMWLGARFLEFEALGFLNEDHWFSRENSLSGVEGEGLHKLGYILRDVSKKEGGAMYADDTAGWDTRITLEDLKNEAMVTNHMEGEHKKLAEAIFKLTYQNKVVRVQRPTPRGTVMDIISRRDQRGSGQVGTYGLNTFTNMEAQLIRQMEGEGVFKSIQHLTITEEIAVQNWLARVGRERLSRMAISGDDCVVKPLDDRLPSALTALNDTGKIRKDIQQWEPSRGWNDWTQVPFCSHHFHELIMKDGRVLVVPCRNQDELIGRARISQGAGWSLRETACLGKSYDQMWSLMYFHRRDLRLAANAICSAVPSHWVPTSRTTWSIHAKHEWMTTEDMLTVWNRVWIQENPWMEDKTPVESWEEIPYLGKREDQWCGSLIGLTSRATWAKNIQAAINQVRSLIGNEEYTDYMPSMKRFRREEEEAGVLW
Sequence of Paired box protein Pax-8 (Q06710 whole entry): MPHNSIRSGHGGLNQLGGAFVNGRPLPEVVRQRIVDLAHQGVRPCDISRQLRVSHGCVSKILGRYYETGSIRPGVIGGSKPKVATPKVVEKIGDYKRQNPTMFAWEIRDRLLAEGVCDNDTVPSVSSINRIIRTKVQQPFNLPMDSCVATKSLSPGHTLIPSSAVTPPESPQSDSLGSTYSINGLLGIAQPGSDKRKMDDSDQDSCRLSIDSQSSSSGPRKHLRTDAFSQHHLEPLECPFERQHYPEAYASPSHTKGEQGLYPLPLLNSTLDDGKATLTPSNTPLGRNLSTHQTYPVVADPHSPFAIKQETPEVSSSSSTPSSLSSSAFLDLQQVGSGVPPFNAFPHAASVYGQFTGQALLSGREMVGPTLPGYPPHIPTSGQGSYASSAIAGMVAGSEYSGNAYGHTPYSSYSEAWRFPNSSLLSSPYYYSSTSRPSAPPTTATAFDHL

In the case of `Fc1ccc(NCc2cccnc2)cc1F`, the EC50 was 15.4 µM (active) in [1] and 11.2 µM (active) in experiment [2]. The IC50 at Estrogen receptor was > 50 µM (not active); in [3] it was > 66 µM (inactive); in [4], 49.1 µM (inactive).

In the case of `COc1cccc(N2C(=O)C(Cl)=C(N3CCN(c4ncccn4)CC3)C2=O)c1`, the IC50 in experiment [5] is > 50 µM (inconclusive).

In the case of `CCCCCCC(=O)N(O)C1CC(=O)N(c2ccccc2)C1=O` (stereo unspecified), the IC50 on Aminopeptidase N was 66.5 µM (active).

For the compound `COc1ccccc1-c1cc(C(=O)Nc2sc3c(c2C#N)CCC(C)C3)c2ccccc2n1` (stereo unspecified), the IC50 at Genome polyprotein is 97.8 µM (active).

As to `Cn1cnc([N+](=O)[O-])c1Sc1ccc(Br)cc1`, the CC50 was 32.4 µM (active) in [6], 34.4 µM (active) in experiment [7] and > 20 µM (active) in experiment [8]. For the same compound, the IC50 in the experiment “cells” is 11.5 µM (active).

For the compound `CSCCC1NC(=O)NC1=O` (stereo unspecified), the IC50 on Estrogen receptor is > 50 µM (not active).

`COc1cc2cc(C(c3nnnn3C3CCCC3)N3CCc4ccccc43)c(=O)[nH]c2cc1OC` (stereo unspecified): the IC50 on Estrogen receptor is 21.9 µM (active).

`Cc1cc(O)nc(-n2nc(C)cc2C)n1`: the CC50 is > 40 µM (active) in experiment [7] and > 20 µM (active) in [8]. Further, the IC50 in “cells” is 3.82 µM (active).

Take `COc1ccc(N2CCN(C3=C(Cl)C(=O)N(c4cccc(C(F)(F)F)c4)C3=O)CC2)cc1`: in experiment [5], the IC50 is > 50 µM (inconclusive).

In the case of `Cc1c(N2C(=O)C(O)=C(C(=O)c3ccc(Br)cc3)C2c2cccnc2)c(=O)n(-c2ccccc2)n1C` (stereo unspecified), the IC50 on Aminopeptidase N is 38.1 µM (active).

Turning to `O=C(c1ccc(-c2ccc([N+](=O)[O-])cc2)o1)N1CCCCCCC1`, the CC50 in [7] is 9 µM (active); in [8] it was 9.37 µM (active). The IC50 in the experiment “cells” is 12.7 µM (active).

As for `O=C(O)C(c1ccccc1)N1C(=O)/C(=C/c2cccs2)SC1=S` (stereo unspecified), the values for the IC50 at Aminopeptidase N and on Genome polyprotein were 57.7 µM (active) and 46.9 µM (active), respectively.

Regarding `COC(=O)C1=C(O)/C(=C\c2ccc(CNC(=O)C(=O)Nc3ccc(C)c(C)c3)o2)N=C1C`, on Estrogen receptor, the IC50 is 19.6 µM (active).

In the case of `CCOC(=O)c1ccsc1NC(=O)CCS(=O)(=O)c1ccccc1`, the CC50 in experiment [7] was 34.5 µM (active); in [8], > 20 µM (active).

With `COc1ccc(OCC(=O)N2CCN(C(=O)COc3ccc(Br)cc3)CC2)cc1`, the IC50 on Aminopeptidase N was 59.2 µM (active).

With `O=C(O)c1cccc(NC(=S)NC(NC(=O)c2ccco2)C(Cl)(Cl)Cl)c1` (stereo unspecified), the IC50 on Aminopeptidase N was 39.9 µM (active). In experiment [9], the EC50 was > 195 µM (not active).

In the case of `CN(C)CCNC(=O)c1cc([N+](=O)[O-])cc2ccc(-c3ccccc3)nc12`, the GI50 in the experiment on SN12K1 was 3.04 µM (inactive).

Turning to `O=C(C[C@@H]1CC[C@@H]2[C@H](COC[C@@H](O)CN2S(=O)(=O)c2cccc(Cl)c2)O1)Nc1ccc(-c2ccccc2)cc1`, the results for the AC50 (at Paired box protein Pax-8; in [10]) were 9.62 µM (active) and 18.9 µM (active), respectively.

Take `COc1cc(/C=c2\sc3nc(-c4ccncc4)nn3c2=O)ccc1OC(C)=O`: the IC50 against Estrogen receptor is 31.7 µM (not active).

Consider `Cc1ccccc1S(=O)(=O)N(C)C[C@H]1OCc2ccccc2-c2ccccc2C(=O)N([C@@H](C)CO)C[C@H]1C`, for which, in [11], the AC50 was 20.9 µM (active).

Consider `N#Cc1cccc(-c2ccc3c(c2)[C@H]2[C@H](CCN2C(=O)c2ccncc2)[C@H](CO)N3)c1`, for which, in experiment [11], the half-maximal activity concentration (AC50) is 7.86 µM (active).

In general, EC50 refers to the concentration at which the effect is half-maximal. As a reminder, the GI50 is the concentration giving 50% growth inhibition. For orientation: AC50 means the concentration at which the activity in the assay is half-maximal.
